Data published in patent US11970473B2, “Nootkatone derivatives and methods of using the same” (Arkansas State University—Jonesboro, priority 2021, dated 2024).
≈ marks a conversion by molar mass, not a printed value. Blank lines part the entries; values can stand above or below the molecule they belong to.

Columns and labels:
[1] = system: B. subtilis ATCC 6623 (Bs); test: Minimal inhibitory concentration (MIC) assay; type: cell-based; conditions: Bacillus subtilis, ATCC6623; B. subtilis ATCC 6623; read-out: Antimicrobial activity (MIC) Bs
Experimental: (§1) Minimal inhibitory concentration (MIC) assay The standard microdilution method recommended by the Clinical and Laboratory Standards Institute (CLSI) was used to determine the MIC of the antibiotics. The starting concentration of compounds was 50 μg/ml and 2-fold dilution was done down the 96 honeycomb well plate column. The MIC assay was conducted in triplicates.

[2] = system: Enterococcus faecalis ATCC 29212 (Es12); test: Minimal inhibitory concentration (MIC) assay; type: cell-based; conditions: ATCC29212; Enterococcus faecalis ATCC 29212; read-out: Antimicrobial activity (MIC) Es12
Experimental: as §1

[3] = system: Enterococcus faecium ATCC 700221 (Em21); test: Minimal inhibitory concentration (MIC) assay; type: cell-based; conditions: Enterococcus faecium, ATCC700221, Enterococcus faecium ATCC 700221; read-out: Antimicrobial activity (MIC) Em21
Experimental: as §1

[4] = system: S. aureus ATCC 25923 (Sa23); test: Minimal inhibitory concentration (MIC) assay; type: cell-based; conditions: Staphylococcus aureus, ATCC25923; S. aureus ATCC 25923, antibiotic susceptible strain; read-out: Antimicrobial activity (MIC) Sa23
Experimental: as §1

[5] = system: S. aureus ATCC 33591 (Sa91); test: Minimal inhibitory concentration (MIC) assay; type: cell-based; conditions: Staphylococcus aureus, ATCC33591; S. aureus ATCC 33591, antibiotic-resistant strain; read-out: Antimicrobial activity (MIC) Sa91
Experimental: as §1

[6] = system: S. aureus ATCC 33592 (Sa92); test: Minimal inhibitory concentration (MIC) assay; type: cell-based; conditions: Staphylococcus aureus, ATCC33592; S. aureus ATCC 33592, antibiotic-resistant strain; read-out: Antimicrobial activity (MIC) Sa92
Experimental: as §1

[7] = system: S. aureus ATCC 700699 (Sa99); test: Minimal inhibitory concentration (MIC) assay; type: cell-based; conditions: Staphylococcus aureus, ATCC700699; S. aureus ATCC 700699, antibiotic-resistant strain; read-out: Antimicrobial activity (MIC) Sa99
Experimental: as §1

[8] = system: S. aureus BAA-2312 (Sa12); test: Minimal inhibitory concentration (MIC) assay; type: cell-based; conditions: Staphylococcus aureus, BAA2312; S. aureus BAA-2312, antibiotic-resistant strain; read-out: Antimicrobial activity (MIC) Sa12
Experimental: as §1

[9] = system: S. aureus strains; test: MIC, summary over S. aureus strains; type: cell-based
Experimental: as §1

[10] = system: S. aureus ATCC 700699 and S. aureus ATCC 33591; test: Time-Kill Assay; type: cell-based; conditions: 4×MIC
Experimental: Time kill assay for test antibiotics against S. aureus ATCC 700699 and S. aureus ATCC 33591 strains was conducted using procedures published previously.^26 Briefly, a log-phase bacterial culture was diluted to ˜5×10^6 CFU/ml in warm sterile CAMHB broth and was exposed to antibiotics at 4×MIC concentration then incubated at 35° C. Samples of 20 μl were taken every 2 hours, diluted 10 fold to 10^−5, and the 6×6 drop plate method was performed to determine viable CFU/ml after 18-24 hours of incubation at 35° C. Each antibiotic time-kill assay was conducted in triplicate.

[11] = system: MRSA persisters; test: Persister Cell Killing Assay
[12] = system: treated bacteria (differentially expressed proteins); test: Quantitative proteomics: protein regulation by Compound 16 versus DMSO control
[13] = system: S. epidermidis 700296 (Se); test: Minimal inhibitory concentration (MIC) assay; type: cell-based; conditions: Staphylococcus epidermidis, S. epidermidis 700296; read-out: Antimicrobial activity (MIC) Se
Experimental: as §1

Structure (SMILES): C=C(C)[C@@H]1CC=C2c3sc(-c4ccc(O)c(O)c4)nc3C[C@@H](C)[C@]2(C)C1 [Compound 16]
MIC [1]: 12.5 µg/mL (≈ 34 µM)
MIC [2]: 12.5 µg/mL (≈ 34 µM)
MIC [3]: 1.56 µg/mL (≈ 4.24 µM)
MIC [4]: 3.12 µg/mL (≈ 8.49 µM)
MIC [5]: 6.25 µg/mL (≈ 17 µM)
MIC [6]: 3.12 µg/mL (≈ 8.49 µM)
MIC [7]: 3.12 µg/mL (≈ 8.49 µM)
MIC [8]: 3.12 µg/mL (≈ 8.49 µM)
MIC ([9]; Staphylococcus aureus, lowest MIC over S. aureus strains, read-out: minimum inhibitory concentration (MIC) value as low as): 3.12 µg/mL (≈ 8.5 µM)
eliminated bacteria at [10]: 6 h
time kill assay: mode of action [10]: bactericidal
ability to kill MRSA persisters [11]: inhibited the growth of persisters significantly
CFU count ([11]; after 4 hrs exposure, 128×MIC): 2×10^7 CFU
potency against the persister compared with positive controls ([11]; versus vancomycin and gentamicin): several fold more potent than the positive controls
Log(FC) ([12]; gene SAV0307 (A0A0H3JQ49): Similar to outer membrane protein, ⅛ MIC): 1.313
Log(FC) ([12]; gene SAV0486: Initiation-control protein YabA, ⅛ MIC): −1.076
Log(FC) ([12]; gene SAV0831: Similar to thioredoxin, ⅛ MIC): −1.298
Log(FC) ([12]; gene SAV1155 (A0A0H3JUX1): Fibrinogen-binding protein, ⅛ MIC): 4.341
Log(FC) ([12]; gene SAV1291: Thiamine_BP domain-containing protein, ⅛ MIC): −1.399
Log(FC) ([12]; gene SAV1556: ABC transporter MreA, ⅛ MIC): −1.267
Log(FC) ([12]; gene SAV1615: UPF0473 protein SAV1615, ⅛ MIC): −1.3145
Log(FC) ([12]; gene SAV1617: UPF0297 protein SAV1617, ⅛ MIC): −2.321
Log(FC) ([12]; gene SAV1876: Uncharacterized protein, ⅛ MIC): −3.169
Log(FC) ([12]; gene SAV1880: UPF0435 protein SAV1880, ⅛ MIC): −1.529
Log(FC) ([12]; gene SAV2592: 3-dmu-9_3-mt domain-containing protein, ⅛ MIC): −1.105
Log(FC) ([12]; gene acpP: Acyl carrier protein, ⅛ MIC): −1.463
Log(FC) ([12]; gene coa (A0A0H3JPA2): Staphylocoagulase, ⅛ MIC): 4.524
Log(FC) ([12]; gene esxA: Type VII secretion system extracellular protein A, ⅛ MIC): −1.698
Log(FC) ([12]; gene ftnA: Bacterial non-heme ferritin, ⅛ MIC): −1.122
Log(FC) ([12]; gene gate: Aspartyl/glutamyl-tRNA (Asn/Gln) amidotransferase subunit C, ⅛ MIC): −2.722
Log(FC) ([12]; gene hit: Hit-like protein involved in cell-cycle regulation, ⅛ MIC): −1.253
Log(FC) ([12]; gene lip1 (P65288): Lipase 1, ⅛ MIC): 1.631
Log(FC) ([12]; gene mecA (A0A0H3JPA5): Penicillin binding protein 2 prime, ⅛ MIC): 1.378
Log(FC) ([12]; gene moaD: Molybdopterin synthase sulfur carrier subunit, ⅛ MIC): −1.617
Log(FC) ([12]; gene narG: Nitrate reductase (quinone), ⅛ MIC): −1.5746
Log(FC) ([12]; gene nasD: Nitrite reductase, ⅛ MIC): −1.201
Log(FC) ([12]; gene rsbV: Anti-sigma-B factor antagonist, ⅛ MIC): −1.199
Log(FC) ([12]; gene sbi (Q931F4): Immunoglobulin-binding protein Sbi, ⅛ MIC): 1.71

MIC [1]: 12.5 µg/mL (≈ 32.9 µM)
MIC [2]: > 100 µg/mL
MIC [3]: > 100 µg/mL
MIC [4]: > 100 µg/mL
MIC [5]: 25 µg/mL (≈ 65.9 µM)
MIC [6]: > 100 µg/mL
MIC [7]: > 100 µg/mL
MIC [8]: > 100 µg/mL
MIC [13]: 25 µg/mL (≈ 65.9 µM)
Structure (SMILES): C=C(C)[C@@H]1CC=C2c3sc(-c4ccc5c(c4)OCO5)nc3C[C@@H](C)[C@]2(C)C1 [Compound 17, (5R,5aS,7R)-2-(1,3-benzodioxol-5-yl)-7-isopropenyl-5,5a-dimethyl-5,6,7,8-tetrahydro-4H-benzo[g][1,3]benzothiazole]
activity against MRSA strains ([9]; two MRSA strains): moderate activity

MIC [1]: 12.5 µg/mL (≈ 33.8 µM)
MIC [2]: > 100 µg/mL
MIC [3]: > 100 µg/mL
MIC [4]: 25 µg/mL (≈ 67.6 µM)
MIC [5]: 50 µg/mL (≈ 135 µM)
MIC [6]: > 100 µg/mL
MIC [7]: 25 µg/mL (≈ 67.6 µM)
MIC [8]: 25 µg/mL (≈ 67.6 µM)
MIC [13]: 50 µg/mL (≈ 135 µM)
Structure (SMILES): C=C(C)[C@@H]1CC=C2c3sc(-c4ccc(Cl)cc4)nc3C[C@@H](C)[C@]2(C)C1 [Compound 19, (5R,5aS,7R)-2-(4-chlorophenyl)-7-isopropenyl-5,5a-dimethyl-5,6,7,8-tetrahydro-4H-benzo[g][1,3]benzothiazole]

MIC [1]: > 100 µg/mL
MIC [2]: > 100 µg/mL
MIC [3]: > 100 µg/mL
MIC [4]: > 100 µg/mL
MIC [5]: 50 µg/mL (≈ 121 µM)
MIC [6]: > 100 µg/mL
MIC [7]: > 100 µg/mL
MIC [8]: > 100 µg/mL
MIC [13]: > 100 µg/mL
Structure (SMILES): C=C(C)[C@@H]1CC=C2c3sc(-c4ccc(Br)cc4)nc3C[C@@H](C)[C@]2(C)C1 [Compound 20, (5R,5aS,7R)-2-(4-bromophenyl)-7-isopropenyl-5,5a-dimethyl-5,6,7,8-tetrahydro-4H-benzo[g][1,3]benzothiazole]

MIC [1]: > 100 µg/mL
MIC [2]: > 100 µg/mL
MIC [3]: > 100 µg/mL
MIC [4]: 100 µg/mL (≈ 269 µM)
MIC [5]: > 100 µg/mL
MIC [6]: 1.56 µg/mL (≈ 4.2 µM)
MIC [7]: > 100 µg/mL
MIC [8]: > 100 µg/mL
MIC [13]: > 100 µg/mL
Structure (SMILES): C=C(C)[C@@H]1CC=C2c3sc(-c4ccc(F)c(F)c4)nc3C[C@@H](C)[C@]2(C)C1 [Compound 21, (5R,5aS,7R)-2-(3,4-difluorophenyl)-7-isopropenyl-5,5a-dimethyl-5,6,7,8-tetrahydro-4H-benzo[g][1,3]benzothiazole]
